One block for each molecule: values may come before it.
Legend:
[1] = test system: lipase (reference L3126 from Sigma); assay: Hydrolysis of ascorbyl palmitate by lipase with or without blue light radiation (palmitic acid released); type: biochemical; details: for Test - Control % of variation versus control: light 400-510 nm vs no light; for Test (in ppm palmitic acid released in reaction medium) / Control (in ppm palmitic acid released in reaction medium): lipase + ascorbyl palmitate; for Test (in ppm palmitic acid released in reaction medium): light 400-510 nm; for Control (in ppm palmitic acid released in reaction medium): no light exposure
Experimental: The lipase (reference L3126 from Sigma) is exposed with stirring to a light radiation with a predominant wavelength of 400-510 nm (FIG. 2: spectrum of blue light used, intensity 0.5 mW/cm^2) in the presence of ethyl lactate (from Sigma or Fluka) according to the set-up described in FIG. 1. The same protocol as that described in Example 1 is carried out, with the replacement of ethyl lactate by ascorbyl palmitate. In the presence of lipase, the ascorbyl palmitate hydrolyses to give palmitic acid and ascorbic acid. The lipase is exposed with stirring to the said radiation with a predominant wavelength ranging from 400 to 510 nm (blue spectrum) in the presence of ascorbyl palmitate. An increase in the hydrolysis proportional to the time of exposure of the lipase to the said radiation is found, as presented in the following table: […]

[2] = test system: lipase (reference L3126 from Sigma); assay: Hydrolysis of ethyl lactate by lipase with or without blue light radiation (lactic acid formed is determined); type: biochemical; details: for Test - Control % of variation versus control: light 400-510 nm vs no light; for Test (ppm lactic acid in reaction medium) / Control (ppm lactic acid in reaction medium): lipase + ethyl lactate; for Test (ppm lactic acid in reaction medium): light 400-510 nm; for Control (ppm lactic acid in reaction medium): no light exposure
Source text: In the presence of lipase, ethyl lactate is hydrolysed to give L-lactate (which reacts with water to give lactic acid) and ethanol. The lactic acid thus formed is quantitatively determined.
The lipase (reference L3126 from Sigma) is exposed with stirring to a light radiation with a predominant wavelength of 400-510 nm (FIG. 2: spectrum of blue light used, intensity 0.5 mW/cm^2) in the presence of ethyl lactate (from Sigma or Fluka) according to the set-up described in FIG. 1.
The control corresponds to bringing together the lipase and the ethyl lactate under the same conditions, without exposure to the said light radiation. An increase in the hydrolysis of the ethyl lactate, with respect to the control, is found.

Test - Control % of variation versus control ([1]; reaction time 20 min): 1.71%
Test - Control % of variation versus control ([1]; reaction time 40 min): 2.95%
Test - Control % of variation versus control ([1]; reaction time 60 min): 9.92%
Test - Control % of variation versus control ([1]; reaction time 90 min): 11.72%
Test (in ppm palmitic acid released in reaction medium) ([1]; reaction time 20 min): 63.96 ppm
Test (in ppm palmitic acid released in reaction medium) ([1]; reaction time 40 min): 77.15 ppm
Test (in ppm palmitic acid released in reaction medium) ([1]; reaction time 60 min): 98.99 ppm
Test (in ppm palmitic acid released in reaction medium) ([1]; reaction time 90 min): 119.51 ppm
Control (in ppm palmitic acid released in reaction medium) ([1]; reaction time 20 min): 62.89 ppm
Control (in ppm palmitic acid released in reaction medium) ([1]; reaction time 40 min): 74.87 ppm
Control (in ppm palmitic acid released in reaction medium) ([1]; reaction time 60 min): 89.16 ppm
Control (in ppm palmitic acid released in reaction medium) ([1]; reaction time 90 min): 105.5 ppm
Structure (SMILES): CCCCCCCCCCCCCCCC(=O)OC[C@H](O)[C@H]1OC(=O)C(O)=C1O [ascorbyl palmitate]

Test - Control % of variation versus control ([2]; reaction time 20 min): 5.16%
Test - Control % of variation versus control ([2]; reaction time 40 min): 9.08%
Test - Control % of variation versus control ([2]; reaction time 90 min): 17.94%
Test (ppm lactic acid in reaction medium) ([2]; 0.5 mW/cm^2, reaction time 20 min): 0.48 ppm
Test (ppm lactic acid in reaction medium) ([2]; 0.5 mW/cm^2, reaction time 40 min): 0.69 ppm
Test (ppm lactic acid in reaction medium) ([2]; 0.5 mW/cm^2, reaction time 90 min): 0.84 ppm
Control (ppm lactic acid in reaction medium) ([2]; reaction time 20 min): 0.45 ppm
Control (ppm lactic acid in reaction medium) ([2]; reaction time 40 min): 0.62 ppm
Control (ppm lactic acid in reaction medium) ([2]; reaction time 90 min): 0.69 ppm
Structure (SMILES): CCOC(=O)C(C)O (stereo not drawn) [ethyl lactate]

From patent US20110130704A1, “COMBINATION OF A LIGHT RAY AND A LIPASE-BIOCONVERTIBLE COMPOUND FOR IMPROVING SKIN AND/OR HAIR APPEARANCE” (L'OREAL, priority 2008, published 2011)
